{"source": "patent US4883666A", "about": "“Controlled drug delivery system for treatment of neural disorders” (Massachusetts Institute of Technology, priority 1987, dated 1989)", "key": {"[1]": {"test_system": "Parkinson's disease", "conditions": "systemic application; cited from earlier work"}, "[2]": {"test_system": "Parkinsonian patients", "conditions": "three patients; continuous i.v. infusion replacing oral levodopa; cited from earlier work"}, "[3]": {"test_system": "behavioral deficits", "conditions": "intracerebral injections; cited from earlier work"}, "[4]": {"conditions": "both in vitro and in vivo; cited from earlier work"}, "[5]": {"assay": "Intracerebral dialysis: extracellular fluid dopamine levels in the striatum after implantation of dopamine containing EVA pellets", "method": "Male Sprague-Dawley Ras (150-200 g) were anaesthetized with pentobarbitone (60 mg/kg) and placed in a David Kopf stereotaxic frame. The skull was exposed and a 4 mm diameter hole drilled centered at coordinates A +0.4 mm and R 2.6 mm using the Paxinos and Watson coordinates. The right cortex was aspirated using a mild vacuum down to the striatal surface (ventral - 3 mm). Pellets were implanted with the uncoated pore, when present, facing ventrally and imbedded in the body of the striatum. Both control, non-dopamine containing pellets, and dopamine containing (2 mg) pellets were implanted. In vivo release was measured on the third, twentieth and sixty-fifth days. Intracerebral Dialysis Method:\nRats were anaesthetized with pentobarbitone (60 mg/kg) and placed in the Kopf stereotaxic frame. The skull was exposed and a Carnegie Medicin dialysis probe (4 mm membrane length, 0.5 mm o.d., 5,000 m.w. cut off) implanted into the striatum at Paxinos and Watson coordinates A +2.1, R (or L) 1.9, V -7 mm. Probes were perfused with an artificial CSF medium, 1 mM Ca, pH 7.35, at a flow rate of 1.5 microliter/min using a CMA 100 pump. Fifteen minute samples were collected into 5 microliters of 0.5M perchloric acid. The probe was calibrated by measuring the recovery of standards of known concentration, 100 nM. Dialysates were immediately assayed by direct injection onto a highly sensitive reverse-phase, isocratic HPLC with an ESA 5100 coulochem detector. Chromatograms were completed within 11 minutes. After an initial period of \"injury release\", 60 to 90 minutes post probe implantation, stable concentrations of dopamine were measured for a minimum of three […] collections.\nThe first rat had probes inserted into the right striatum on the third and sixty-fifth days and in the left striatum on the sixty-fifth day post polymer implantation. The second rat had probes inserted into both the right and left striata on the twentieth day."}, "[6]": {"description": "Ethylene vinyl acetate slabs containing 0%, 30%, 40% and 50% dopamine by weight formed by solvent casting as previously described were punched out to form round discs, approximately 3.0 mm in diameter. These discs were then coated by an additional layer of ethylene vinyl acetate either (i) completely; (ii) completely except for one concave pinhole present on one surface (iii) completely except for two concave pinholes present, one on each surface; (iv) partially, with one surface coated and the other not coated; or (v) not coated at all.\nThe release of dopamine into 5 ml of a 150 mM NaCI, 0.2% EDTA solution was monitored by measuring the absorbance at 280 nm of the solution at various time points and by comparison to a linear standard curve comparing absorbance at 280 nm to concentration of dopamine in the same buffered solution. The results are portrayed as either the absolute mass released over the time course of 65 days or as the amount of dopamine released as a fraction of the total amount present in the pellet.\nSamples of these solutions were injected into High Pressure Liquid Chromatography system designed to measure absolute quantities of dopamine and to distinguish dopamine from its oxidation products or other metabolites."}}, "note": "Like-named read-outs stand apart in the source and are kept apart here.", "data": [{"compound": "N[C@@H](Cc1ccc(O)c(O)c1)C(=O)O", "note": "[L-dopa]", "values": [{"measurement": "behavioral symptoms of Parkinson's disease", "setting": "[1]", "result": "can be reduced"}, {"measurement": "clinical response", "setting": "[2]", "result": "prolonged and stable clinical response"}]}, {"compound": "Nerve Growth Factor", "values": [{"measurement": "behavioral deficits", "setting": "[3]", "result": "reduces behavioral deficits"}]}, {"compound": "NCCc1ccc(O)c(O)c1", "note": "[dopamine]", "values": [{"measurement": "release from EVA over an extended period of time", "setting": "[4]", "result": "linear, concentration and time-dependent release"}, {"measurement": "persistence of dopamine release into the extracellular fluid of the implanted striatum", "setting": "[5]; not evident on third day, seen by twentieth day", "result": "persists for at least two months"}, {"measurement": "increase in dopamine levels", "setting": "[5]; rat, in vivo", "result": "> 200", "unit": "fold"}, {"measurement": "dopamine concentration in the extracellular fluid (ECF)", "setting": "[5]; rat, in vivo, 28800 min", "result": 30.5, "unit": "nM"}, {"measurement": "dopamine level in the extracellular fluid (ECF)", "setting": "[5]; rat, in vivo, 93600 min", "result": 36, "unit": "nM"}, {"measurement": "level of dopamine in the right striatum relative to normal", "setting": "[5]; third day", "result": "unchanged from normal"}, {"measurement": "substance released that was dopamine (not oxidation products or other metabolites), HPLC", "setting": "[6]; High Pressure Liquid Chromatography of release solutions", "result": "greater than 99.9%"}, {"measurement": "release of dopamine", "setting": "[6]; coated fully except for one hole, 30% loading, up to 65 days in vitro", "result": "linear release"}, {"measurement": "initial release of dopamine (every thirty minutes over several hours)", "setting": "[6]; coated fully except for one hole, 40% dopamine", "result": "release is constant"}, {"measurement": "release of dopamine", "setting": "[6]; disc coated on one side, 30%, 40% or 50% dopamine", "result": "the release is not linear"}, {"measurement": "release of dopamine", "setting": "[6]; disc containing 30%, 40% or 50% dopamine, fully coated, throughout the time period", "result": "no release of dopamine"}, {"measurement": "release of dopamine", "setting": "[6]; disc not coated, 30%, 40% or 50% dopamine", "result": "release occurred rapidly, in a non-linear manner"}, {"measurement": "release of dopamine", "setting": "[6]; fully coated except for two holes, 30% loading", "result": "Virtual linear release"}]}]}
